# Experimental data: the supplement of paper PMC10307832
# Experiments:
# Test in all cases: relative viability (nuclei count vs DMSO), 5 days (fraction); higher = more cells survive
# AZ3146 + AZD7762 = compound: CN1CCC(CC1)OC2=CC(=C(C=C2)NC3=NC=C4C(=N3)N(C(=O)N4C)C5CCCC5)OC [AZ3146] + NC(=O)Nc1cc(-c2cccc(F)c2)sc1C(=O)N[C@H]1CCCNC1 [AZD7762] (partner 0.2 µM)
# Procedure, shortened: (§1)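 Relative viability was taken as the ratio of nuclei in treated wells to nuclei in vehicle wells. Lung cancer cell lines in 1536-well plates received compounds by pin tool one day after seeding, either one drug alone or a fixed anchor-drug dose plus five library-drug doses (not always all listed) in √10 steps. Nuclei were counted on 4× images after 5 days of treatment, and values are medians of duplicate plates.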
# GSK-J4 + Lapatinib = compound: CCOC(=O)CCNc1cc(N2CCc3ccccc3CC2)nc(-c2ccccn2)n1 [GSK-J4] + CS(=O)(=O)CCNCc1ccc(-c2ccc3ncnc(Nc4ccc(OCc5cccc(F)c5)c(Cl)c4)c3c2)o1 [Lapatinib] (partner 2 µM)
# Procedure, shortened: as §1
# GSK-J4 + Foretinib = compound: CCOC(=O)CCNc1cc(N2CCc3ccccc3CC2)nc(-c2ccccn2)n1 [GSK-J4] + COc1cc2c(Oc3ccc(NC(=O)C4(C(=O)Nc5ccc(F)cc5)CC4)cc3F)ccnc2cc1OCCCN1CCOCC1 [Foretinib] (partner 0.25 µM)
# Procedure, shortened: as §1
# AZ3146 + OSI-027 = compound: CN1CCC(CC1)OC2=CC(=C(C=C2)NC3=NC=C4C(=N3)N(C(=O)N4C)C5CCCC5)OC [AZ3146] + COc1cccc2cc(-c3nc([C@H]4CC[C@H](C(=O)O)CC4)n4ncnc(N)c34)[nH]c12 [OSI-027] (partner 0.5 µM)
# Procedure, shortened: as §1
Cell Line,relative viability (AZ3146 + AZD7762; first compound 0.08 µM),relative viability (AZ3146 + AZD7762; first compound 0.253 µM),relative viability (AZ3146 + AZD7762; first compound 0.8 µM),relative viability (AZ3146 + AZD7762; first compound 2.53 µM),relative viability (AZ3146 + AZD7762; first compound 8 µM),relative viability (GSK-J4 + Lapatinib; first compound 0.5 µM),relative viability (GSK-J4 + Lapatinib; first compound 1.581 µM),relative viability (GSK-J4 + Lapatinib; first compound 5 µM),relative viability (GSK-J4 + Lapatinib; first compound 15.81 µM),relative viability (GSK-J4 + Lapatinib; first compound 50 µM),relative viability (GSK-J4 + Foretinib; first compound 0.5 µM),relative viability (GSK-J4 + Foretinib; first compound 1.581 µM),relative viability (GSK-J4 + Foretinib; first compound 5 µM),relative viability (GSK-J4 + Foretinib; first compound 15.81 µM),relative viability (GSK-J4 + Foretinib; first compound 50 µM),relative viability (AZ3146 + OSI-027; first compound 0.08 µM),relative viability (AZ3146 + OSI-027; first compound 0.253 µM),relative viability (AZ3146 + OSI-027; first compound 0.8 µM),relative viability (AZ3146 + OSI-027; first compound 2.53 µM),relative viability (AZ3146 + OSI-027; first compound 8 µM)
201T,0.534,0.643,0.634,0.553,0.594,0.988,1.08,0.983,1.04,0.992,1.1,1.09,1.07,0.923,1.06,0.679,0.567,0.726,0.765,0.685
A549,–,–,–,–,–,0.952,1.03,–,1.1,0.902,0.84,0.874,0.907,0.911,0.828,–,–,–,–,–
A-427,0.622,0.665,0.56,0.527,0.508,1.05,–,0.913,0.976,0.847,1.05,–,1.11,0.532,0.218,0.431,0.586,0.429,0.574,0.338
ABC-1,0.756,0.717,0.829,0.893,1,1.03,1.17,1.21,0.935,1.05,1.04,0.63,1.06,0.989,0.846,0.466,0.484,0.454,0.614,0.472
BEN,–,0.608,0.668,0.589,0.68,0.657,0.622,–,0.764,0.635,0.857,0.593,–,0.588,0.53,–,0.306,0.206,0.285,0.309
CAL-12T,0.656,0.653,0.678,0.604,0.611,0.586,0.489,0.778,0.55,0.391,1.11,0.703,1.11,1.04,1.02,0.798,0.652,0.612,0.805,0.655
COR-L23,–,–,–,–,–,0.881,0.917,–,0.927,0.615,0.927,0.901,–,0.897,0.822,0.685,0.766,0.781,0.835,0.769
COR-L 105,–,–,–,–,–,0.398,0.317,0.35,0.319,0.35,1.13,0.877,0.834,1.02,0.969,0.63,0.653,0.587,0.641,0.404
Calu-6,–,–,–,–,–,1,1.11,1.05,1.03,1.04,0.83,0.867,0.867,0.839,0.822,–,–,–,–,–
ChaGo-K-1,0.739,0.91,0.865,0.833,0.733,–,–,–,–,–,0.995,0.907,0.971,0.895,0.72,0.572,0.611,0.539,0.581,0.366
EBC-1,–,–,–,–,–,0.199,0.244,0.243,0.235,0.209,0.0939,0.0899,0.0897,0.0966,0.103,–,–,–,–,–
EKVX,0.506,0.773,0.541,0.787,0.824,0.216,0.205,0.261,0.197,0.171,0.757,0.221,0.754,0.315,0.908,0.72,0.653,0.629,0.63,0.687
EMC-BAC-2,0.94,1.09,1.25,0.998,1.07,0.925,0.928,0.802,0.824,0.806,0.93,0.937,0.685,0.982,0.647,0.343,0.371,0.418,0.379,0.375
EPLC-272H,0.136,0.199,0.175,0.24,0.237,0.981,–,0.919,0.89,0.679,0.723,0.547,0.819,0.514,0.26,–,0.277,0.272,0.309,0.308
HCC-44,1.02,0.978,1.12,1,0.979,0.964,0.647,0.909,1.07,0.957,–,–,–,–,–,0.484,0.427,0.416,0.622,0.558
IA-LM,–,–,–,–,–,0.767,0.598,0.862,0.624,0.0952,1.09,1.15,1.32,1.16,0.334,–,–,–,–,–
LCLC-103H,0.623,0.714,0.767,0.789,0.831,–,–,–,–,–,0.8,0.617,0.789,0.593,0.52,0.423,0.474,0.529,0.456,0.501
NCI-H441,1.08,1.31,1.14,1.09,0.949,–,–,–,–,–,0.962,0.875,1.1,0.906,0.759,0.611,0.656,0.528,0.663,0.529

Cell Line,relative viability (AZ3146 + AZD7762; first compound 0.08 µM),relative viability (AZ3146 + AZD7762; first compound 0.253 µM),relative viability (AZ3146 + AZD7762; first compound 0.8 µM),relative viability (AZ3146 + AZD7762; first compound 2.53 µM),relative viability (AZ3146 + AZD7762; first compound 8 µM),relative viability (GSK-J4 + Lapatinib; first compound 0.5 µM),relative viability (GSK-J4 + Lapatinib; first compound 1.581 µM),relative viability (GSK-J4 + Lapatinib; first compound 5 µM),relative viability (GSK-J4 + Lapatinib; first compound 15.81 µM),relative viability (GSK-J4 + Lapatinib; first compound 50 µM),relative viability (GSK-J4 + Foretinib; first compound 0.5 µM),relative viability (GSK-J4 + Foretinib; first compound 1.581 µM),relative viability (GSK-J4 + Foretinib; first compound 5 µM),relative viability (GSK-J4 + Foretinib; first compound 15.81 µM),relative viability (GSK-J4 + Foretinib; first compound 50 µM),relative viability (AZ3146 + OSI-027; first compound 0.08 µM),relative viability (AZ3146 + OSI-027; first compound 0.253 µM),relative viability (AZ3146 + OSI-027; first compound 0.8 µM),relative viability (AZ3146 + OSI-027; first compound 2.53 µM),relative viability (AZ3146 + OSI-027; first compound 8 µM)
NCI-H520,–,–,–,–,–,0.846,0.515,0.939,0.74,0.658,0.691,0.689,0.811,0.613,0.626,0.234,0.255,0.234,0.292,0.233
NCI-H522,0.803,0.57,0.807,0.698,0.577,–,–,–,–,–,–,–,–,–,–,0.882,0.664,0.527,0.68,0.759
NCI-H661,–,–,–,–,–,0.483,0.472,0.405,0.349,0.386,0.983,0.995,0.86,0.969,0.805,0.74,0.72,0.768,0.764,0.576
NCI-H1299,–,–,–,–,–,0.861,0.924,0.851,0.953,0.875,1.06,1.03,0.994,1.07,1.11,–,–,–,–,–
NCI-H1563,–,–,–,–,–,0.821,0.621,0.784,0.834,0.892,0.943,0.898,0.747,0.801,0.973,0.684,0.731,0.765,0.746,0.696
NCI-H1623,–,–,–,–,–,–,–,–,–,–,0.93,0.727,0.925,0.562,0.807,0.39,0.482,0.458,0.405,0.402
NCI-H1648,–,–,0.863,0.757,0.624,–,–,–,–,–,–,–,–,–,–,–,0.268,0.233,0.253,0.302
NCI-H1650,–,–,–,–,–,0.751,0.174,0.731,0.634,0.327,1.07,0.456,1.18,1.03,0.949,0.474,0.622,0.515,0.607,0.395
NCI-H1703,0.104,0.164,0.106,–,0.183,0.937,0.912,0.84,1.11,0.695,0.319,0.403,0.337,0.325,0.304,–,–,–,–,–
NCI-H1792,0.414,0.631,0.641,0.601,0.617,0.932,0.705,0.835,0.782,0.692,–,–,–,–,–,0.638,0.735,–,0.699,0.714
NCI-H2009,–,–,–,–,–,0.828,0.144,0.56,0.971,0.739,1.17,1.19,–,1.2,0.986,0.631,0.621,0.651,0.703,0.436
NCI-H2023,–,–,–,–,–,0.827,0.0641,0.727,0.641,0.474,0.759,0.737,1.11,0.735,0.709,0.42,0.364,0.298,0.362,0.21
NCI-H2228,–,–,–,–,–,1.11,0.598,1.17,0.943,0.938,0.764,1.03,0.854,0.817,1.06,0.484,0.579,0.498,0.615,0.429
NCI-H2342,0.472,0.481,0.489,0.521,0.529,–,–,–,–,–,1.02,1.02,1.11,1.01,1.11,0.592,0.536,0.59,0.508,0.61
SK-LU-1,–,–,–,–,–,0.758,0.776,0.668,0.616,0.585,0.727,0.722,0.62,0.598,0.603,0.358,0.326,0.304,0.342,0.357
SK-MES-1,–,–,–,–,–,0.452,0.495,0.459,0.392,0.421,0.808,0.757,0.843,0.624,0.866,0.659,0.621,0.568,0.569,0.452
SW 900,0.527,–,0.59,0.767,0.519,–,–,–,–,–,0.681,0.836,1.05,0.591,0.431,0.459,0.491,0.613,0.549,0.387
SW 1573,–,–,–,–,–,1.05,1.05,0.728,0.865,1.02,0.846,0.69,0.751,0.776,0.764,0.678,0.633,0.453,0.662,0.204
